According to ChEMBL document CHEMBL4007467, “Effects of 6-paradol, an unsaturated ketone from gingers, on cytochrome P450-mediated drug metabolism” (Bioorg Med Chem Lett, 2017):

Assays:
CYP2B6 = biological target: T1, CYP2B6 (Homo sapiens, UniProt P20813); assay: Inhibition of CYP2B6 in human liver microsomes assessed as enzyme-mediated metabolite formation at 1 uM using bupropion as substrate incubated for 5 mins followed by NADPH addition measured after 30 mins by LC-MS/MS analysis relative to control; type: ADME; design: scale not given: the % may be the effect or the level left; conditions: probe bupropion, read-out: Activity
T1 sequence (P20813 whole entry): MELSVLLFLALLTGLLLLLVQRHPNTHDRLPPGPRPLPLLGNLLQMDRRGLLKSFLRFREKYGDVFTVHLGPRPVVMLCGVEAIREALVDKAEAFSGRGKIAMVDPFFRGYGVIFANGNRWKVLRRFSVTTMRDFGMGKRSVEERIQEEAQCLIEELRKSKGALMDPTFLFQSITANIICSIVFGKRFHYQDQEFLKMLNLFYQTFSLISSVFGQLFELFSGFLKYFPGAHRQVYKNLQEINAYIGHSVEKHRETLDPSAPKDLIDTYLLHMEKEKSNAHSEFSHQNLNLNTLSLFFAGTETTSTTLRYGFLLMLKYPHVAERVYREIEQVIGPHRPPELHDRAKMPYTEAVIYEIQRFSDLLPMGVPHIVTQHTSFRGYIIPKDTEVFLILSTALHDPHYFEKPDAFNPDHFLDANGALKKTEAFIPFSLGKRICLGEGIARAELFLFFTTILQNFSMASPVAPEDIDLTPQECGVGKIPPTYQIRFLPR

Cytochrome P450 2C9 = Cytochrome P450 2C9 (Homo sapiens, UniProt P11712); assay: Inhibition of CYP2C9 in human liver microsomes assessed as enzyme-mediated metabolite formation using diclofenac as substrate incubated for 5 mins followed by NADPH addition measured after 30 mins by LC-MS/MS analysis; type: ADME
Sequence of Cytochrome P450 2C9 (P11712 whole entry): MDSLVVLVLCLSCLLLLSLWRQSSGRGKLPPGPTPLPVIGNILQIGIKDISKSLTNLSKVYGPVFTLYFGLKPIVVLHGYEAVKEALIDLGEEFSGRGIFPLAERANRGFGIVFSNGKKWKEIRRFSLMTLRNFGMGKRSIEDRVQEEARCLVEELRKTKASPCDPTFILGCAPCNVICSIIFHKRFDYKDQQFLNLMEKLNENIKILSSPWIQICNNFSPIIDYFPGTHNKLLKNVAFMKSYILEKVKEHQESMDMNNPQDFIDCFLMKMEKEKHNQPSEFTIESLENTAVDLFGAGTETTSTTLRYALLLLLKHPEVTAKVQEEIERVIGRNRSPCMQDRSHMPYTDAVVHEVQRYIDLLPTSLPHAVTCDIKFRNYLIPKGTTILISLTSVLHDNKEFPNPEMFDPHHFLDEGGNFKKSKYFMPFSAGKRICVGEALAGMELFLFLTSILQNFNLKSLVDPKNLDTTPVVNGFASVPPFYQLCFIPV

CCCCCCCC(=O)CCc1ccc(O)c(OC)c1
activity at 0.5 h, 1 µM (CYP2B6): 63.2% | IC50 (Cytochrome P450 2C9): 13.6 µM
